We go through 18 compounds from article PMC9412300, “In Vitro Evaluation and Mitigation of Niclosamide’s Liabilities as a COVID-19 Treatment” (Vaccines, 2022).

Bounds are passed on as bounds.

System in one series: not listed separately
The experiment in a line: in vitro. To be noted: African green monkey.
As to `O=C(Nc1ccc([N+](=O)[O-])cc1Cl)c1cccc(Cl)c1` [Compound 9], the CC50 was > 20 µM.

The compound `COC(=O)c1ccc(NC(=O)c2cc(Cl)ccc2O)c(Cl)c1` [Compound 7] gave a CC50 of 8.14 µM.

As for `CC(C)(C)c1ccc(O)c(C(=O)Nc2ccc([N+](=O)[O-])cc2Cl)c1` [Compound 11], the CC50 turned out to be 3.41 µM.

Take `O=C(Nc1ccc([N+](=O)[O-])cc1Cl)c1cc(Cl)ccc1O` [Niclosamide]: the CC50 worked out at 1.05 µM.

In the case of `N#Cc1ccc(NC(=O)c2cc(Cl)ccc2O)c(Cl)c1` [Compound 24], the CC50 was found to be 4.72 µM.

Take `O=C(Nc1ccc([N+](=O)[O-])cc1Cl)c1ccccc1O` [Compound 2]: the CC50 was 5.59 µM.

For a further series, the system named is SARS-CoV-2.
Test: not given
Set-up: method as in PMID 35138402. Particulars: phase 2, 2 g orally for 7 days; cited from earlier work.
For the compound `O=C(Nc1ccc([N+](=O)[O-])cc1Cl)c1cc(Cl)ccc1O` [Niclosamide], the “effect on the duration of the contagious period of SARS-CoV-2” value is “no statistically significant effect”.

A further series has as its system SARS-CoV-2 B.1.351 (beta). The experiment in a line: microbe, parasite or virus in culture. The class given is cell-based. Particulars: Severe acute respiratory syndrome coronavirus 2, Vero C1008; read-out: IC50 against B.1.351, 24 h infection.
Turning to `O=C(Nc1ccc([N+](=O)[O-])cc1Cl)c1cc(Cl)ccc1O` [Niclosamide], the IC50 (in general, the midpoint of a concentration-inhibition curve) was 0.44 ± 0.021 µM.

System in another series: not given
Test: not given
Particulars: cited from earlier work. Set-up: method as in PMID 26848771, PMID 31040114.
For `O=C(Nc1ccc([N+](=O)[O-])cc1Cl)c1cc(Cl)ccc1O` [Niclosamide], the oral bioavailability is recorded as < 10%.

System in the next series: not given
Test: not given
To be noted: rats, oral administration at 5 mg/kg; cited from earlier work.
As for `O=C(Nc1ccc([N+](=O)[O-])cc1Cl)c1cc(Cl)ccc1O` [Niclosamide], the “maximal serum concentration (Cmax)” value is on record as 354 ± 152 ng/mL.

System in the next series: not given
Test: not given
Also on record: method as in PMID 33842908. To be noted: phase 1, 50 mg over 2.5 days inhalable/intranasal; cited from earlier work.
For the compound `O=C(Nc1ccc([N+](=O)[O-])cc1Cl)c1cc(Cl)ccc1O` [Niclosamide], the “participants with moderate lung irritation” value is 59%.

The subject of another series is SARS-CoV-2 B.1.617.2 (delta). Put plainly: microbe, parasite or virus in culture. In kind it is cell-based. Particulars: Severe acute respiratory syndrome coronavirus 2, Vero C1008; read-out: IC50 against B.1.617.2, 24 h infection.
On to `O=C(Nc1ccc([N+](=O)[O-])cc1Cl)c1cc(Cl)ccc1O` [Niclosamide], for which the IC50 came out at 0.774 ± 0.058 µM.

A further series concerns H1437 cells. The experiment in a line: Cell viability (cell count per well) in H1437, 72 h compound exposure. In kind it is cell-based, human. Particulars: H1437 infected with WA1, 72 h compound exposure.
`O=C(Nc1ccccc1Cl)c1cc(Cl)ccc1O` [Compound 5] had a CC50 of 18.6 µM.

Regarding `CC(C)(C)c1ccc(O)c(C(=O)Nc2ccc(C(=O)O)cc2F)c1` [Compound 15], the CC50 is > 20 µM.

Consider `CC(C)(C)c1cccc(C(=O)Nc2ccc(N)cc2Cl)c1O` [Compound 32], for which the CC50 was > 20 µM.

In the case of `O=C(O)c1ccc(NC(=O)c2cc(Cl)ccc2O)c(Cl)c1` [Compound 8], the CC50 was > 20 µM.

For the compound `COC(=O)c1ccc(NC(=O)c2cc(C(C)(C)C)ccc2O)c(Cl)c1` [Compound 13], the CC50 is > 20 µM.

Turning to `CC(C)(C)c1cc(C(=O)Nc2ccc(C(=O)O)cc2Cl)c(O)c(C(C)(C)C)c1` [Compound 26], the CC50 was > 20 µM.

On to `Cc1cc(C(=O)O)ccc1NC(=O)c1cc(C(C)(C)C)ccc1O` [Compound 16], for which the CC50 is > 20 µM.

For `CC(C)(C)c1cccc(C(=O)Nc2ccc(NS(C)(=O)=O)cc2Cl)c1O` [Compound 33], the CC50 is > 20 µM.

For `CC(C)(C)c1cccc(C(=O)Nc2ccc(C(=O)O)cc2Cl)c1O` [Compound 30], the CC50 was > 20 µM.

Compound `Cc1ccc(O)c(C(=O)Nc2ccc([N+](=O)[O-])cc2Cl)c1` [Compound 3] had a CC50 of 3.06 µM.

Take `O=C(Nc1ccc(Br)cc1Cl)c1cc(Cl)ccc1O` [Compound 34]: the CC50 was 3.62 µM.

Take `COC(=O)c1ccc(NC(=O)c2cc(C3CCCCC3)ccc2O)c(Cl)c1` [Compound 21]: the CC50 was > 20 µM.

System in a further series: not listed separately
Described as above. Particulars: human, H1437 cells infected with SARS-CoV-2 B.1.1.7, H1437 infected with B.1.1.7, 72 h compound exposure, read-out: H1437 (B.1.1.7) CC50. In kind it is cell-based, human.
With `O=C(Nc1ccc([N+](=O)[O-])cc1Cl)c1cc(Cl)ccc1O` [Niclosamide], the CC50 at 72 h came to 0.438 µM.

The same series, now with this note: human, H1437 cells infected with SARS-CoV-2 WA1, H1437 infected with WA1, 72 h compound exposure, read-out: H1437 (WA1) CC50.
Consider `O=C(Nc1ccc([N+](=O)[O-])cc1Cl)c1cccc(Cl)c1` [Compound 9], for which the CC50 at 72 h was > 20 µM.

Regarding `COC(=O)c1ccc(NC(=O)c2cc(Cl)ccc2O)c(Cl)c1` [Compound 7], the CC50 at 72 h is > 20 µM.

Take `CC(C)(C)c1ccc(O)c(C(=O)Nc2ccc([N+](=O)[O-])cc2Cl)c1` [Compound 11]: the CC50 at 72 h was determined as 1.92 µM.

As to `O=C(Nc1ccc([N+](=O)[O-])cc1Cl)c1cc(Cl)ccc1O` [Niclosamide], the CC50 at 72 h was 17.1 µM.

`N#Cc1ccc(NC(=O)c2cc(Cl)ccc2O)c(Cl)c1` [Compound 24]: the CC50 at 72 h worked out at 0.88 µM.

With `O=C(Nc1ccc([N+](=O)[O-])cc1Cl)c1ccccc1O` [Compound 2], the CC50 at 72 h came to 8.4 µM.

For the next series, the system named is VeroE6 cells.
Test: not given
Settings: not given
In turn, `O=C(Nc1ccccc1Cl)c1cc(Cl)ccc1O` [Compound 5] showed a CC50 of 8.44 µM.

For `CC(C)(C)c1ccc(O)c(C(=O)Nc2ccc(C(=O)O)cc2F)c1` [Compound 15], the CC50 is > 20 µM.

Consider `CC(C)(C)c1cccc(C(=O)Nc2ccc(N)cc2Cl)c1O` [Compound 32], for which the CC50 is > 20 µM.

Regarding `O=C(O)c1ccc(NC(=O)c2cc(Cl)ccc2O)c(Cl)c1` [Compound 8], the CC50 was > 20 µM.

For the compound `COC(=O)c1ccc(NC(=O)c2cc(C(C)(C)C)ccc2O)c(Cl)c1` [Compound 13], the CC50 was 14.6 µM.

`CC(C)(C)c1cc(C(=O)Nc2ccc(C(=O)O)cc2Cl)c(O)c(C(C)(C)C)c1` [Compound 26]: the CC50 was > 20 µM.

Take `Cc1cc(C(=O)O)ccc1NC(=O)c1cc(C(C)(C)C)ccc1O` [Compound 16]: the CC50 was > 20 µM.

For the compound `CC(C)(C)c1cccc(C(=O)Nc2ccc(NS(C)(=O)=O)cc2Cl)c1O` [Compound 33], the CC50 was > 20 µM.

As to `CC(C)(C)c1cccc(C(=O)Nc2ccc(C(=O)O)cc2Cl)c1O` [Compound 30], the CC50 was > 20 µM.

For `Cc1ccc(O)c(C(=O)Nc2ccc([N+](=O)[O-])cc2Cl)c1` [Compound 3], the CC50 came out at 6.28 µM.

`O=C(Nc1ccc(Br)cc1Cl)c1cc(Cl)ccc1O` [Compound 34] had a CC50 of 5.47 µM.

Regarding `COC(=O)c1ccc(NC(=O)c2cc(C3CCCCC3)ccc2O)c(Cl)c1` [Compound 21], the CC50 is > 20 µM.

The subject of the next series is SARS-CoV.
Test: not given
Particulars: cited from earlier work.
As for `O=C(Nc1ccc([N+](=O)[O-])cc1Cl)c1cc(Cl)ccc1O` [Niclosamide], the “inhibition of SARS-CoV viral replication in vitro” value is on record as “low micromolar potency”.

System in the next series: not listed separately
Put plainly: Cell viability in VeroE6, shortened 24 h infection assay. Particulars: African green monkey, VeroE6 cells infected with SARS-CoV-2, CC50 (protonophores), VeroE6, 24 h infection conditions, starting concentration 100 μM.
`O=C(Nc1ccc([N+](=O)[O-])cc1Cl)c1cc(Cl)ccc1O` [Niclosamide]: the CC50 at 25 h stood at 66 µM.

In the next series the test system is SARS-CoV-2 P.1 (gamma). Put plainly: microbe, parasite or virus in culture. The class given is cell-based. Particulars: Severe acute respiratory syndrome coronavirus 2, Vero C1008; read-out: IC50 against P.1, 24 h infection.
For the compound `O=C(Nc1ccc([N+](=O)[O-])cc1Cl)c1cc(Cl)ccc1O` [Niclosamide], the IC50 is 0.399 ± 0.034 µM.

System in the next series: not given
Test: not given
Set-up: method as in PMID 26848771, PMID 31040114. To be noted: cited from earlier work. This is another data set of the same source.
For the compound `O=C(Nc1ccc([N+](=O)[O-])cc1Cl)c1cc(Cl)ccc1O` [Niclosamide], the water solubility result is recorded as “poor”.

The test system of another series is SARS-CoV-2 WA1 (wildtype). Put plainly: microbe, parasite or virus in culture. In kind it is cell-based. Particulars: Severe acute respiratory syndrome coronavirus 2, Vero C1008, 24 h; read-out: IC50 WA1 (protonophores).
As for `O=C(Nc1ccc([N+](=O)[O-])cc1Cl)c1cc(Cl)ccc1O` [Niclosamide], the IC50 amounted to 3.5 µM.

Staying with this series, now noted: Severe acute respiratory syndrome coronavirus 2, Vero C1008; read-out: IC50 against WA1, 24 h infection.
As to `O=C(Nc1ccc([N+](=O)[O-])cc1Cl)c1cc(Cl)ccc1O` [Niclosamide], the IC50 is 1.66 µM.

The test system of a further series is SARS-CoV-2 B.1.1.7 (alpha). The experiment in a line: microbe, parasite or virus in culture. In kind it is cell-based. To be noted: Severe acute respiratory syndrome coronavirus 2, Vero C1008, 24 h; read-out: IC50 B.1.1.7 (protonophores).
For the compound `O=C(Nc1ccc([N+](=O)[O-])cc1Cl)c1cc(Cl)ccc1O` [Niclosamide], the IC50 was 0.25 µM.

Still in this series, the particulars now being: Severe acute respiratory syndrome coronavirus 2, Vero C1008; read-out: IC50 against B.1.1.7, 24 h infection.
On to `O=C(Nc1ccc([N+](=O)[O-])cc1Cl)c1cc(Cl)ccc1O` [Niclosamide], for which the concentration for half-maximal inhibition (IC50) is 0.298 µM.
